In publication PMC6651196, “Preclinical Evaluation of Radiolabeled Peptides for PET Imaging of Glioblastoma Multiforme” (Molecules, 2019):
“Also recorded” adds a separate entry of the source. Where two headings read alike, the source gives them in different places.

Columns and labels:
U-87 MG tumor xenografts = assay: µPET/CT imaging
Procedure: (§1) SCID female mice (Harlan, Indianapolis, IN, USA) at 6–8 weeks of age were subcutaneously injected into the right flank with 5 × 10^6 U-87 MG cells mixed with Matrigel Matrix (Corning, Corning, NY, USA) at a 1:1 ratio. The tumor growth was continuously monitored by caliperation. When the tumor volume reached 100–300 mm^3 (i.e., 6–8 weeks after inoculation of cells), the mice were used for ex vivo biodistribution studies or µPET/CT imaging. The experimental animals were housed in a specific-pathogen-free animal facility. […] The number of animals was reduced as much as possible (n = 3 per group and time point) for all in vivo experiments. The tracer injection and small animal imaging were carried out under 2% isoflurane anesthesia (FORANE, Abbott Laboratories, Abbott Park, IL, USA) to minimize animal suffering and to prevent animal motion.
(§2) Experimental animals were imaged using microPET/SPECT/CT system Albira (Bruker, Billerica, Massachusetts, USA). Mice were r.o. injected with the radiolabeled tracer at a dose of 5–10 MBq (corresponding to 1–2 μg of peptide for animals injected with ^68Ga-peptides) per animal. Anesthetized animals were placed in a prone position in the Albira system before the start of imaging. Static PET/CT images were acquired over 30 min interval starting 30 and 90 minutes after injection. A 10-min PET scan (axial FOV 148 mm) was performed, followed by a double CT scan (axial FOV 65 mm, 45 kVp, 400 μA, at 400 projections). Scans were reconstructed with the Albira software (Bruker Biospin Corporation, Woodbridge, CT, USA) using the maximum likelihood expectation maximization (MLEM) and filtered back-projection (FBP) algorithms. The PMOD software (PMOD Technologies, Zurich, Switzerland) was used for the image analysis and tracer uptake quantification. Three-dimensional volume rendered images were created in VolView software (Kitware, Clifton Park, NY, USA). The data obtained by PET scan were quantified in PMOD via manually selected volumes of interest (VOIs) and expressed as standardized uptake values (SUV). Using SUVs for the tumor and brain regions the tumor to brain ratios were calculated.

[1] = Stability in the presence of competing chelator (DTPA), HPLC radiochemical purity; settings: 37 °C
Procedure: 50 μL of ^68Ga-labeled peptides were mixed with 150 μL of 6 mM DTPA solution (Sigma Aldrich, St. Louis, MO, USA). The mixture was then incubated at 37 °C and the samples were processed for HPLC analysis to determine the radiochemical purity were taken at selected time points (30, 60, and 120 min) and directly injected on HPLC.

[2] = Partition coefficient (log P), octanol/PBS
Procedure: Labeled peptide was diluted with 600 μL of phosphate-buffered saline (PBS), and 50 µL of the solution was mixed in the test tube with 450 μL of PBS and 500 μL of octanol. The sample was placed on the shaker (1000 RPM) for 20 min and then centrifuged at 15,000 RPM for 1 min. Subsequently, 50 µL from both octanol and water layer were collected and measured on an automatic gamma counter (PerkinElmer, Waltham, Massachusetts, USA). Partition coefficient was calculated as the decadic logarithm of the ratio of octanol/water activity.

U-87 MG cells = assay: Cell uptake assay with and without excess of cold peptide; assay type: cell-based, human; settings: for Accumulation in U-87 MG cells: 90 min, 37 °C
Procedure: Human glioblastoma multiforme U-87 MG cells (ATCC, Manassas, VA, USA) were cultured in Dulbecco’s Modified Eagle Medium (Sigma Aldrich, St. Louis, MO, USA) supplemented with 10% fetal bovine serum, 0.1 mM non-essential amino acids and 1.0 mM sodium pyruvate at 37 °C in a 5% carbon dioxide humidified incubator. The cells were subcultured and used for experiments at a confluency of 70–90%.
Cell uptake assay was performed in 24-well plates with U-87 MG cell at high confluency. The assay itself was carried out using a dedicated buffer instead of the regular cell culture media. The buffer consists of 25 mM Tris/HCl, 5.4 mM KCl, 1.8 mM CaCl2, 0.8 mM MgSO4, 5 mM glucose, 140 mM NaCl in H2O [34].
The cells were incubated with ^68Ga-labeled RGD peptides (20 µM) alone and also with excess (2 mM) of cold RGD peptide for 90 min (37 °C) in the buffer described above. The cells were rinsed with PBS, lysed in 0.1 M NaOH and measured for radioactivity in a gamma counter (PerkinElmer, Waltham, Massachusetts, USA). The uptake was calculated as the mean of the percentage of the applied dose ± standard deviation.

µPET/CT imaging = settings: female, SCID, mouse, tumor and brain (PET volumes of interest), total radioactivity
Procedure: as §1, §2

Ex vivo biodistribution = settings: mouse; for tissue to tissue ratio at 0.5 h / tissue to tissue ratio at 1.5 h: female, SCID, total radioactivity, from ex vivo biodistribution; for tissue to tissue ratio at 1.5 h: 90 min p.i.
Procedure: (§3) SCID female mice (Harlan, Indianapolis, IN, USA) at 6–8 weeks of age were subcutaneously injected into the right flank with 5 × 10^6 U-87 MG cells mixed with Matrigel Matrix (Corning, Corning, NY, USA) at a 1:1 ratio. The tumor growth was continuously monitored by caliperation. When the tumor volume reached 100–300 mm^3 (i.e., 6–8 weeks after inoculation of cells), the mice were used for ex vivo biodistribution studies or µPET/CT imaging. […] The number of animals was reduced as much as possible (n = 3 per group and time point) for all in vivo experiments. The tracer injection and small animal imaging were carried out under 2% isoflurane anesthesia (FORANE, Abbott Laboratories, Abbott Park, IL, USA) to minimize animal suffering and to prevent animal motion.
(§4) For ex vivo biodistribution studies, radiolabeled tracers were diluted with saline. The prepared solutions were applied retro-orbitally (r.o.) to the mice [35] at a dose of 1–2 MBq per mouse corresponding to 0.2–0.4 µg of the peptide. The mice were sacrificed by cervical dislocation 30 min and 90 min post-injection and organs of interest (blood, spleen, pancreas, stomach, intestine, kidneys, liver, heart, lungs, muscle, bone, and tumor) were collected. The samples were weighed and the radioactivity was measured by an automatic gamma counter. The accumulation of radiotracer in studied organs was expressed as a percentage of injected dose per gram of organ.

[3] = Plasma protein binding, size-exclusion spin column; settings: human plasma, 37 °C
Procedure: (§5) 10 µL of the labeled peptide was mixed with 190 μL of human plasma (Sigma Aldrich, St. Louis, MO, USA), and incubated at 37 °C. Twenty-five µL of sample were collected at 30, 60, and 120 min time intervals for the determination of protein binding. The samples were separated by size-exclusion chromatography (illustra MicroSpin G-50 Column, GE Healthcare, UK) by centrifugation (2000 × g, 1 min). The eluate (protein-bound) and appropriate column (non-protein-bound) were measured on an automatic gamma counter. The percentage of plasma protein binding (PPB) was calculated as the ratio of the activity in the eluate and the activity of the whole sample (column plus the eluate). The blank determination of protein binding, i.e., incubation of the radiotracer in PBS buffer followed by separation of the sample on gel column was performed as the control step.

[4] = Stability in physiological pH (pH 7), HPLC radiochemical purity; settings: 37 °C
Procedure: The peptides were labeled as described above. Subsequently, 100 μL of 1.14 M sodium acetate was added to adjust the pH to 7.0. The mixture was incubated at 37 °C and the samples for HPLC analysis to determine the radiochemical purity were taken at selected time points (30, 60, and 120 min) and directly injected on HPLC.

[5] = Plasma stability, HPLC radiochemical purity; settings: human
Procedure: (§6) 100 μL of the labeled peptide was mixed with 400 μL of human plasma (Sigma Aldrich, St. Louis, MO, USA). This mixture was incubated at 37 °C and the samples for HPLC analysis to determine the radiochemical purity were taken at selected time points (30, 60, and 120 min). The individual samples were adjusted before the injection on HPLC—every sample was mixed with acetonitrile (Roth, Karlsruhe, Germany) and placed on the shaker (450 rpm) for 60 s and then centrifuged (20,000 RCF, 3 min), followed by removing the supernatant. Finally, the supernatant was analyzed using HPLC.

[6] = Stability in the presence of competing metal (FeCl3), HPLC radiochemical purity; settings: 37 °C
Procedure: 50 μL of ^68Ga-labeled peptides were mixed with 150 μL of 0.1 mM FeCl3 (Sigma Aldrich, St. Louis, MO, USA). The mixture was incubated at 37 °C and the samples for HPLC analysis to determine the radiochemical purity were taken at selected time points (30, 60 and 120 min) and directly injected on HPLC.

in vivo [7] = settings: female, SCID, mouse, total radioactivity
Procedure: as §1, §2

[8] = human, plasma
Procedure: as §5

in vitro = settings: human, plasma
Procedure: as §6

U-87 MG tumor SCID mouse [9] = settings: in vivo
Procedure: as §3, §4

in vivo [10] = settings: female, SCID, mouse, total radioactivity; remark: listed apart in the source
Procedure: as §3, §4

[11] = mouse, in vivo
Procedure: as §3, §4

U-87 MG tumor SCID mouse [12] = assay: Ex vivo biodistribution; settings: 90 min p.i., from ex vivo biodistribution
Procedure: as §3, §4

[13] = tumor and blood, Tumor to blood ratio, 30 min p.i.
[14] = tumor and blood, Tumor to blood ratio
[15] = tumor and kidney, Tumor to kidney ratio, 30 min p.i.
[16] = tumor and kidney, Tumor to kidney ratio
[17] = tumor and muscle, Tumor to muscle ratio, 30 min p.i.
[18] = tumor and muscle, Tumor to muscle ratio

| SMILES | % Stability in 6 mM DTPA ([1]; 60 min) [%] | % Stability in 6 mM DTPA ([1]; 120 min) [%] | logP [2] | Accumulation in U-87 MG cells (U-87 MG cells; normal cells, 20 µM) | tissue to tissue ratio at 1.5 h (µPET/CT imaging) | tissue to tissue ratio at 0.5 h (Ex vivo biodistribution; [13]) | tissue to tissue ratio at 1.5 h (Ex vivo biodistribution; [14]) | tissue to tissue ratio at 0.5 h (Ex vivo biodistribution; [15]) | tissue to tissue ratio at 1.5 h (Ex vivo biodistribution; [16]) | tissue to tissue ratio at 0.5 h (Ex vivo biodistribution; [17]) | tissue to tissue ratio at 1.5 h (Ex vivo biodistribution; [18]) | Plasma Protein Binding (%) ([3]; incubation 30 min) | Plasma Protein Binding (%) ([3]; incubation 60 min) | Plasma Protein Binding (%) ([3]; incubation 120 min) | % Stability in pH 7 ([4]; 30 min) [%] | % Stability in pH 7 ([4]; 60 min) [%] | % Stability in pH 7 ([4]; 120 min) [%] | remaining at 0.5 h [5] [%] | remaining at 1 h [5] [%] | remaining at 2 h [5] [%] | also measured |
| --- | --- | --- | --- | --- | --- | --- | --- | --- | --- | --- | --- | --- | --- | --- | --- | --- | --- | --- | --- | --- | --- |
| OC[C@H]1OC(O)[C@H](F)[C@@H](O)[C@@H]1O (stereo partly drawn) [^18F-FDG, ^18F-fluorodeoxyglucose, reference compound] | – | – | – | – | – | – | – | – | – | – | – | – | – | – | – | – | – | – | – | – | PET/CT visualization of the tumor (U-87 MG tumor xenografts; mouse, in vivo): allowed clear imaging of the tumor |
| Cc1cn([C@H]2C[C@H]([18F])[C@@H](CO)O2)c(=O)[nH]c1=O [^18F-FLT, ^18F-fluorothymidine, reference compound] | – | – | – | – | – | – | – | – | – | – | – | – | – | – | – | – | – | – | – | – | PET/CT visualization of the tumor (U-87 MG tumor xenografts; 30 and 90 min p.i.): could also be imaged |
| N=C(N)NCCC[C@@H]1NC(=O)[C@H](CCCCNC(=O)CN2CCN(CC(=O)O)CCN(CC(=O)O)CCN(CC(=O)O)CC2)NC(=O)[C@@H](Cc2ccccc2)NC(=O)[C@H](CC(=O)O)NC(=O)CNC1=O [^68Ga-DOTA-c(RGDfK), DOTA-c(RGDfK), metal not drawn] | 99.39 ± 0.54 | 99.06 ± 0.57 | -3.43 ± 0.11 | lowest | 4.7 | 1.09 | 14.7 | 0.29 | 1.43 | 2.42 | 13.5 | 2.39 | 2.65 | 3.29 | 99.60 ± 0.23 | 99.51 ± 0.13 | 99.49 ± 0.20 | 99.23 ± 0.18 | 99.14 ± 0.19 | 98.81 ± 0.33 | % Stability in 6 mM DTPA ([1]; 30 min): 99.39 ± 0.43%; Uptake in U-87 cells compared to ^68Ga-NODAGA-c(RGDyK)2 (U-87 MG cells; normal cells): about 50%; % Stability in 0.1 M FeCl3 ([6]; 30 min): 97.04 ± 1.24%; % Stability in 0.1 M FeCl3 ([6]; 60 min): 96.76 ± 1.21%; % Stability in 0.1 M FeCl3 ([6]; 120 min): 95.83 ± 1.04% |
| CSCC[C@H](NC(=O)[C@H](CC(C)C)NC(=O)CNC(=O)[C@H](Cc1ccccc1)NC(=O)[C@H](Cc1ccccc1)NC(=O)[C@H](CCC(N)=O)NC(=O)[C@H](CCC(N)=O)NC(=O)[C@@H]1CCCN1C(=O)[C@H](CCCCN)NC(=O)[C@@H]1CCCN1C(=O)[C@H](CCCNC(=N)N)NC(=O)CN1CCN(CC(=O)O)CCN(CC(=O)O)CCN(CC(=O)O)CC1)C(N)=O [^68Ga-DOTA-substance P, DOTA-substance P, metal not drawn] | – | – | – | 0.3 % of the applied dose | – | – | – | – | – | – | – | – | – | – | – | – | – | – | – | – | tissue to tissue ratio at 1.5 h (in vivo [7]): 4.25; fraction unbound [8]: ~0.71; Accumulation in U-87 MG cells (U-87 MG cells; blocked with excess (2 mM) of cold peptide): 0.3 % of the applied dose; Uptake in U-87 cells compared to ^68Ga-NODAGA-c(RGDyK)2 (U-87 MG cells; normal cells): about 50%; PET/CT visualization of the tumor (U-87 MG tumor xenografts; 30 and 90 min p.i., listed as 68Ga-substance P): did not visualize the tumor; also recorded: did not observe any substantial signal in tumors; remaining at 0.5 h (in vitro): 98.2%; remaining at 1 h (in vitro): 98.2%; remaining at 2 h (in vitro): 98%; logP: -3.03 ± 0.33; Tumor to blood ratio (U-87 MG tumor SCID mouse [9]): 2.8; Accumulation in kidneys (U-87 MG tumor SCID mouse [9]; 1.5 h): 15 % ID/g; tissue to tissue ratio at 0.5 h (in vivo [10]; Tumor to blood ratio): 0.93; tissue to tissue ratio at 1.5 h (in vivo [10]; Tumor to blood ratio): 2.84; tissue to tissue ratio at 0.5 h (in vivo [10]; Tumor to kidney ratio): 0.14; tissue to tissue ratio at 1.5 h (in vivo [10]; Tumor to kidney ratio): 0.04; tissue to tissue ratio at 0.5 h (in vivo [10]; Tumor to muscle ratio): 3.1; tissue to tissue ratio at 1.5 h (in vivo [10]; Tumor to muscle ratio): 6.45; tissue uptake at 1.5 h ([11]; Accumulation in kidneys): 15 to 17 %ID/g; tissue uptake at 0.5 h ([11]; Tumor uptake): 2.14 %ID/g |
| N=C(N)NCCC[C@@H]1NC(=O)[C@H](CCCCNC(=O)CC[C@H](NC(=O)CCC(C(=O)O)N2CCN(CC(=O)O)CCN(CC(=O)O)CC2)C(=O)NCCCC[C@@H]2NC(=O)[C@@H](Cc3ccc(O)cc3)NC(=O)[C@H](CC(=O)O)NC(=O)CNC(=O)[C@H](CCCNC(=N)N)NC2=O)NC(=O)[C@@H](Cc2ccc(O)cc2)NC(=O)[C@H](CC(=O)O)NC(=O)CNC1=O (stereo partly drawn) [^68Ga-NODAGA-c(RGDyK)2, NODAGA-c(RGDyK)2, metal not drawn] | 99.39 ± 0.54 | 99.06 ± 0.57 | -3.34 ± 0.13 | highest accumulation; also recorded: highest binding | 4.14 | 2.3 | 16.4 | 0.61 | 0.91 | 5.84 | 10.5 | 1.74 | 1.89 | 3.40 | 99.83 ± 0.11 | 99.74 ± 0.18 | 99.62 ± 0.21 | 99.51 ± 0.17 | 99.31 ± 0.11 | 99.02 ± 0.33 | PET/CT visualization of the tumor (U-87 MG tumor xenografts; 30 and 90 min p.i.): highest accumulation of radioactivity; also recorded: best tumor images; tissue uptake at 0.5 h (Ex vivo biodistribution; tumor, Tumor uptake, 30 min p.i.): 6 %ID/g; % Stability in 0.1 M FeCl3 ([6]; 30 min): 98.66 ± 0.82%; % Stability in 0.1 M FeCl3 ([6]; 60 min): 99.22 ± 0.19%; % Stability in 0.1 M FeCl3 ([6]; 120 min): 99.17 ± 0.18% |
| N=C(N)NCCC[C@@H]1NC(=O)[C@H](CCCCNC(=O)CCC(C(=O)O)N2CCN(CC(=O)O)CCN(CC(=O)O)CC2)NC(=O)[C@@H](Cc2ccc(O)cc2)NC(=O)[C@H](CC(=O)O)NC(=O)CNC1=O (stereo partly drawn) [^68Ga-NODAGA-c(RGDyK), NODAGA-c(RGDyK), metal not drawn] | 99.20 ± 0.37 | 99.23 ± 0.32 | -3.05 ± 0.62 | – | 4 | 1.9 | 23.1 | 0.36 | 0.9 | 3.23 | 6.51 | 2.74 | 1.31 | 3.21 | 99.82 ± 0.05 | 99.78 ± 0.12 | 99.72 ± 0.22 | 99.23 ± 0.18 | 99.14 ± 0.19 | 98.81 ± 0.33 | % Stability in 6 mM DTPA ([1]; 30 min): 99.65 ± 0.07%; Tumor to blood ratio (U-87 MG tumor SCID mouse [12]): 23.1; % Stability in 0.1 M FeCl3 ([6]; 30 min): 99.24 ± 0.44%; % Stability in 0.1 M FeCl3 ([6]; 60 min): 98.56 ± 0.60%; % Stability in 0.1 M FeCl3 ([6]; 120 min): 98.94 ± 0.42% |
